Assay results from patent US20140348901A1, “COMBINATORIAL METHODS AND COMPOSITIONS FOR TREATMENT OF MELANOMA” (The Penn State Research Foundation, priority 2004, published 2014).

How the values were obtained:
UACC 903 cells [1] = test: BAY 43-9006 growth inhibition/IC-50 of UACC 903 melanoma cells (SRB); assay type: cell-based, human; conditions: 72 hours; read-out: IC-50, concentration that reduced UACC 903 cell survival by half
Experimental: To measure the growth inhibitory effects or IC-50 of BAY 43-9006 on UACC 903 cells, 5×10^3 cells/well were plated into 96-well plates. Following 24 hours, varying concentrations of BAY 43-9006 (0, 0.02, 0.1, 0.4, 1.6, 6.3, 25, or 100 uM) was added to duplicate 8-strip wells in the plate. After 72 hours of growth at 37° C. in a 5% CO2 humidified atmosphere, media was discarded and cells were fixed in 10% trichloroacetic acid. Surviving cells at each concentrations of the drug were calculated using the SRB binding assay (Stahl J M et al. Cancer Res. 63: 2881-90 (2003)).

[2] = tested on: wild type or mutant ^V599EB-Raf protein; test: pMek and pErk in HEK 293T cells expressing HA-tagged wild type or mutant B-Raf exposed to BAY 43-9006; assay type: cell-based, human; conditions: 5 uM, 2 hours
Experimental: The BAY 43-9006 compound used for these studies was synthesized as described in ref (Bankston D et al. Organic Process Res Dev. 6: 777-81 (2002)). To evaluate the inhibitory effects of BAY 43-9006 on wild type and mutant B-Raf, HEK 293T cells were transfected with HA-tagged wild type B-RAF, mutant ^V599EB-RAF or vector (pcDNA3) using Calcium Phosphate as described previously (Robertson G P et al. Proc Natl Acad Sci USA. 95: 9418-23 (1998)). Following transfection (72 hours) media was replaced with DMEM media supplemented with 10% FBS and 5 uM BAY 43-9006 or DMSO vehicle. Two hours later, protein lysates were collected for Western blot analysis. Levels of phosphorylated Mek and Erk were quantified from 3 independent blots and fold differences under different conditions were estimated after normalizing against an Erk 2 loading control.

[3] = tested on: mutant ^V599EB-Raf protein signaling; test: pMek and pErk Western blot in UACC 903 cells with increasing BAY 43-9006; assay type: cell-based, human
C8161 cells [4] = test: pMek and pErk levels in C8161 cells with BAY 43-9006; assay type: cell-based, human
UACC 903 cells [5] = test: Pretreatment of mice with BAY 43-9006, UACC 903 tumor development; assay type: in vivo, nude mice; conditions: 50 mg/kg i.p.
Experimental: (§1) Effect of BAY 43-9006 on tumor development was measured by subcutaneously injecting 5×10^6 UACC 903 or 1×10^6 1205 Lu cells into nude mice. After 6 days when a small tumor (50-100 mm^3) had developed, the mice received an intra peritoneal injection on alternate days consisting of 50 μl of vehicle (DMSO), or the drug BAY 43-9006 at concentrations of 10, 50 or 100 mg/kg body weight for UACC 903 cells and 50 mg/kg body weight for 1205 Lu cells. For studies involving pretreatment with BAY 43-9006, 50 mg/kg body weight of drug was intra peritoneally injected twice (−4 and −2 days) prior to subcutaneous injection of UACC 903 or 1205 Lu cells. The mechanism by which pharmacological inhibition of mutant ^V599EB-Raf delays tumor development was identified by comparing tumors of the same size developing in parallel. This was achieved by subcutaneous injection of 5×10^6 UACC 903 cells followed at day 6 by intra peritoneal injection every 2 days with 50 mg/kg of BAY 43-9006. For temporal and spatial matching of control DMSO with drug treated tumors, either 1×10^6, 2.5×10^6 or 5×10^6 million UACC 903 cells were subcutaneously injected and from day 6 treated intra peritoneally with DMSO vehicle every 2 days. Drug or vehicle treated tumors of the same size developing in parallel were harvested at days 9, 11, 13 and 15 for comparison. […]

1205 Lu cells = test: Pretreatment of mice with BAY 43-9006, 1205 Lu tumor development; assay type: in vivo, nude mice; conditions: 50 mg/kg i.p., 1205 Lu (not shown)
Experimental: as §1

UACC 903 tumors [6] = test: BAY 43-9006 on preexisting UACC 903 tumors in nude mice; assay type: in vivo
Experimental: (§2) Effect of BAY 43-9006 on tumor development was measured by subcutaneously injecting 5×10^6 UACC 903 or 1×10^6 1205 Lu cells into nude mice. After 6 days when a small tumor (50-100 mm^3) had developed, the mice received an intra peritoneal injection on alternate days consisting of 50 μl of vehicle (DMSO), or the drug BAY 43-9006 at concentrations of 10, 50 or 100 mg/kg body weight for UACC 903 cells and 50 mg/kg body weight for 1205 Lu cells. For studies involving pretreatment with BAY 43-9006, 50 mg/kg body weight of drug was intra peritoneally injected twice (−4 and −2 days) prior to subcutaneous injection of UACC 903 or 1205 Lu cells. The mechanism by which pharmacological inhibition of mutant ^V599EB-Raf delays tumor development was identified by comparing tumors of the same size developing in parallel. This was achieved by subcutaneous injection of 5×10^6 UACC 903 cells followed at day 6 by intra peritoneal injection every 2 days with 50 mg/kg of BAY 43-9006. For temporal and spatial matching of control DMSO with drug treated tumors, either 1×10^6, 2.5×10^6 or 5×10^6 […] UACC 903 cells were subcutaneously injected and from day 6 treated intra peritoneally with DMSO vehicle every 2 days. Drug or vehicle treated tumors of the same size developing in parallel were harvested at days 9, 11, 13 and 15 for comparison. At each time point, tumors from mice treated with vehicle or drug were harvested for analysis of cell proliferation, apoptosis and vascular development, as described previously (Stahl J M et al. Cancer Res. 64: 7002-10 (2004), Stahl J M et al. Cancer Res. 63: 2881-90 (2003)).
(§3) It is currently unknown whether targeting mutant ^V599EB-Raf in established preexisting melanoma tumors could retard tumor development, and if so, whether the mechanism is the same as that occurring when targeting ^V599EB-Raf in cells prior to tumor formation. Therefore, we next examined whether pharmacologically targeting B-Raf in preexisting melanoma tumors would inhibit tumor development by a similar mechanism. Five million UACC 903 cells, one million 1205 Lu cells or five million C8161 cells were subcutaneously injected into 4- to 6-week old female nude mice. On day 6, vehicle (DMSO) or BAY 43-9006 compound dissolved in vehicle (10, 50 or 100 mg/kg) was administered to mice via intra peritoneal injection every 48 hours. A 48 hour time period between drug administrations was chosen since inhibitory effects on the MAP kinase signaling pathway in UACC 903, 1205 Lu and C8161 cells persisted for at least that period (data not shown). Size of the developing tumors was measured using calipers on alternate days and the results are shown for UACC 903 cells in FIG. 4A and 1205 Lu cells in FIG. 15B. While all concentrations of the BAY 43-9006 compound slowed UACC 903 tumor development, only concentrations ≧50 mg/kg caused tumor development to plateau 7 days following the start of treatment (FIG. 4B).

1205 Lu tumors = test: BAY 43-9006 on preexisting 1205 Lu tumors in nude mice; assay type: in vivo; conditions: 50 mg/kg
Experimental: as §1, with “43-9006.” for “43-9006. For temporal and spatial matching of control DMSO with drug treated tumors, either 1×10^6, 2.5×10^6 or 5×10^6 million UACC 903 cells were subcutaneously injected and from day 6 treated intra peritoneally with DMSO vehicle every 2 days. Drug or vehicle treated tumors of the same size developing in parallel were harvested at days 9, 11, 13 and 15 for comparison.”
It is currently unknown whether targeting mutant ^V599EB-Raf in established preexisting melanoma tumors could retard tumor development, and if so, whether the mechanism is the same as that occurring when targeting ^V599EB-Raf in cells prior to tumor formation. […] Size of the developing tumors was measured using calipers on alternate days and the results are shown for UACC 903 cells in FIG. 4A and 1205 Lu cells in FIG. 15B. […]

C8161 cells [7] = test: BAY 43-9006 on preexisting C8161 tumors in nude mice; assay type: in vivo; conditions: C8161 (data not shown)
Description: as §3

phosphorylated Erk = test: In vivo pErk measurements in UACC 903 tumor sections (immunohistochemistry); set-up: species or system nude mice; conditions: 50 mg/kg, 9 days after start of treatment
Experimental: To quantitate changes in pErk levels in formalin-fixed, paraffin-embedded tumor sections, antigen retrieval was performed with 0.01 M citrate buffer at pH 6.0 for 20 minutes in a 95° C. water bath. Slides were cooled for 20 minutes, rinsed in PBS and then incubated in 3% H2O2 for 10 minutes to quench endogenous peroxidase activity. Next, sections were blocked with 1% BSA for 30 minutes and incubated with anti-pERK antibody at a 1:100 dilution (Cell Signaling Technologies, Beverly, Mass.) overnight at 4° C. Following rinsing in PBS, sections were incubated with biotinylated anti rabbit IgG for 1 hour, rinsed again in PBS, and incubated with peroxidase labeled streptavidine for 30 minutes. […] The average percentage of cells±SEM that stained positive for pErk was counted from a minimum of 6 different tumors with 4-6 fields counted per tumor.
To confirm that the BAY 43-9006 compound affected activity of the mutant ^V599EB-Raf signaling pathway in tumors, the percentage of cells expressing elevated levels of phosphorylated Erk was scored in tumors from mice 9 days after start of treatment with vehicle (DMSO) or vehicle containing 50 mg/kg BAY 43-9006 (FIG. 15C).

UACC 903 tumors [8] = test: Apoptosis, cell proliferation and vessel density in size- and time-matched UACC 903 tumors treated with BAY 43-9006; assay type: in vivo, nude mice
Experimental: as §2
Apoptosis measurements on formalin-fixed, paraffin-embedded tumor sections were undertaken using the TUNEL TMR Red Apoptosis kit from Roche (Manheim, Germany), as described previously (Stahl J M et al. Cancer Res. 64: 7002-10 (2004), Stahl J M et al. Cancer Res. 63: 2881-90 (2003)). Cell Proliferation rates in formalin-fixed tumor sections were measured using the RPN 20 cell proliferation kit (Amersham Biosciences, Piscataway, N.J.) that utilizes BrdU incorporation and immunocytochemistry. […] The number of BrdU stained cells were scored as the percentage of total cells of tumors treated with BAY 43-9006 or vehicle (DMSO). Quantification of vessels density using a purified rat anti-mouse CD31 (PECAM-1) monoclonal antibody (Pharmingen, San Diego, Calif.) has been described previously (Stahl J M et al. Cancer Res. 64: 7002-10 (2004), Stahl J M et al. Cancer Res. 63: 2881-90 (2003)). The proportional area of the tumors occupied by the vessels over the total area was calculated using the IP Lab imaging software program. For all tumor analyses, a minimum of 6 different tumors with 4-6 fields per tumor was analyzed and results represented as the average±SEM.

VEGF = VEGF secretion ELISA, UACC 903 or 1205 Lu cells; assay type: cell-based, human; conditions: BAY 43-9006 5, 10, 15 uM; UACC 903 and 1205 Lu
Experimental: To determine the amount of VEGF secreted by cells following siRNA-mediated knockdown of B-Raf protein or after treatment with BAY 43-9006, the human VEGF Quantikine kit (DVE00) was used (R&D Systems Inc., Minneapolis, Minn.). UACC 903 or 1205 Lu cells (5×10^5) nucleofected with the various siRNA were plated in 60 mm petri dishes and 24 hours later media replaced with DMEM containing 2% FBS. Following an additional 24 hours, media was again replaced and conditioned media for ELISA analysis was collected 24 and 48 hours later. For BAY 43-9006 studies. 3×10^5 UACC 903 or 1205 Lu cells were plated into 60 mm petri dishes and 24 hours later media was changed to DMEM containing 2% FBS. After an additional 24 hours, media was replaced with DMEM supplemented with 2% FBS alone or in combination with BAY 43-9006 (5, 10, 15 uM) or DMSO vehicle. After 12 or 24 hours, conditioned media was collected for ELISA analysis. The media was cleared by centrifugation at 14,000 rpm (4° C.) for 5 minutes and stored at −80° C. VEGF ELISA analysis was performed in triplicate on duplicate experiments according to the manufacturer's instructions.

advanced stage melanoma = conditions: cited from earlier work

CNC(=O)c1cc(Oc2ccc(NC(=O)Nc3ccc(Cl)c(C(F)(F)F)c3)cc2)ccn1 [BAY 43-9006]
IC50 (UACC 903 cells [1]): 5 to 6 µM | Fold reduction of phosphorylated Erk [2]: 3-4 fold | Fold reduction of phosphorylated Mek [2]: 5-6 fold | Persistence of inhibitory effects on MAP kinase signaling ([3]; UACC 903 and 1205 Lu cell lines): 2 to 3 days | Levels of phosphorylated (active) Mek and Erk ([3]; UACC 903 cells, 2 hours, increasing concentrations): dose responsive manner | pMek and pErk levels (C8161 cells [4]): inhibited | Tumor development after pretreatment (UACC 903 cells [5]): significantly inhibited | Tumor development after pretreatment (1205 Lu cells): significantly inhibited | Tumor size on day 27 (UACC 903 tumors [6]; 10 mg/kg): > 2,400 mm^3 | Delay of tumor development (UACC 903 tumors [6]; 10 mg/kg i.p. every 48 hours): ~1 week | Increase in tumor sizes from days 13-to-31 (UACC 903 tumors [6]; UACC 903, after a week of drug treatment): no statistically significant increase | Tumor development plateau, days following the start of treatment (UACC 903 tumors [6]; concentrations ≧50 mg/kg): 7 days | Concentrations that reduce the tumorigenic potential of melanoma cells containing mutant ^V599EB-Raf (UACC 903 tumors [6]; i.p. every 2 days from day 6): ≥ 50 mg/kg | Plateau in tumor size, days (1205 Lu tumors): 17-to-31 days | Kinetics of tumor formation (C8161 cells [7]): no difference | Fold fewer pErk positive cells than vehicle treated tumors (phosphorylated Erk): ~3 fold | Tumor area occupied by apoptosis by day 15 (UACC 903 tumors [8]; 50 mg/kg): up to 25% | Vessel development at day 9 vs vehicle (UACC 903 tumors [8]; 50 mg/kg): statistically significant difference | Tumor area undergoing apoptosis by day 20 (UACC 903 tumors [8]; 50 mg/kg (data not shown)): ~50% | Decrease in percentage of proliferating cells (UACC 903 tumors [8]; preexisting tumors, 50 mg/kg): 32-57% | VEGF secretion (VEGF): dose dependent manner | Efficacy of monotherapy (advanced stage melanoma; advanced stage melanoma patients, oral): relatively ineffective | Response rate in patients (advanced stage melanoma; in combination with paclitaxel and carboplatinum): 50%
